US20110257210A1, “BENZIMIDAZOLE DERIVATIVES AND THEIR USE FOR MODULATING THE GABAA RECEPTOR COMPLEX” (NEUROSEARCH A/S, priority 2008, published 2011)

Target: benzodiazepine binding site on GABAA receptors (rat cerebral cortex membranes)
Test: In vitro inhibition of 3H-flunitrazepam (3H-FNM) binding
Conditions: inhibition of specific binding of 3H-FNM (1 nM), cerebral cortex membranes from male Wistar rats, 40 min at 2° C.
Procedure: In Vitro Inhibition of ^3H-flunitrazepam (^3H-FNM) Binding
The GABA recognition site and the benzodiazepine modulatory unit can selectively be labelled with ^3H-flunitrazepam.
Preparations are performed at 0-4° C. unless otherwise indicated. Cerebral cortex from male Wistar rats (150-200 g) is homogenised for 5-10 sec in 20 ml Tris-HCl (30 mM, pH 7.4) using an Ultra-Turrax homogeniser. The suspension is centrifuged at 27,000×g for 15 min and the pellet is washed three times with buffer (centrifuged at 27,000×g for 10 min). The washed pellet is homogenized in 20 ml of buffer and incubated on a water bath (37° C.) for 30 min to remove endogenous GABA and then centrifuged for 10 min at 27,000×g. The pellet is then homogenized in buffer and centrifuged for 10 min at 27,000×g. The final pellet is resuspended in 30 ml buffer and the preparation is frozen and stored at −20° C.
The membrane preparation is thawed and centrifuged at 2° C. for 10 min at 27,000×g. The pellet is washed twice with 20 ml 50 mM Tris-citrate, pH 7.1 using an Ultra-Turrax homogeniser and centrifuged for 10 min at 27,000×g. The final pellet is resuspended in 50 mM Tris-citrate, pH 7.1 (500 ml buffer per g of original tissue), and then used for binding assays. Aliquots of 0.5 ml tissue are added to 25 μl of test solution and 25 μl of ^3H-FNM (1 nM, final concentration), mixed and incubated for 40 min at 2° C. Non-specific binding is determined using Clonazepam (1 μM, final concentration). After incubation the samples are added 5 ml of ice-cold buffer and poured directly onto Whatman GF/C glass fibre filters under suction and immediately washed with 5 ml ice-cold buffer. The amount of radioactivity on the filters is determined by conventional liquid scintillation counting. Specific binding is total binding minus non-specific binding.
25-75% inhibition of specific binding must be obtained, before calculation of an IC50.
The test value will be given as IC50 (the concentration (μM) of the test substance which inhibits the specific binding of ^3H-FNM by 50%).
Co is specific binding in control assays, and
CX is the specific binding in the test assay.
(The calculations assume normal mass-action kinetics).

| Compound | IC50 [nM] |
| --- | --- |
| CC(C)(O)c1ccc2c(c1)ncn2-c1ccc(F)c(-c2ccnc(Cl)c2F)c1 [Compound 7f, 2-{1-[3-(2-Chloro-3-fluoro-pyridin-4-yl)-4-fluoro-phenyl]-1H-benzoimidazol-5-yl}-propan-2-ol] | 2.5 |
| CC(C)(O)c1ccc2c(c1)ncn2-c1ccc(F)c(-c2ccncc2C#N)c1 [Compound 7i, 4-{2-Fluoro-5-[5-(1-hydroxy-1-methyl-ethyl)-benzoimidazol-1-yl]-phenyl}-nicotinonitrile] | 1.1 |
| CC(C)(O)c1ccc2c(c1)ncn2-c1ccc(F)c(-c2cncc(C#N)c2)c1 [Compound 7g, 5-{2-Fluoro-5-[5-(1-hydroxy-1-methyl-ethyl)-benzoimidazol-1-yl-]-phenyl}-nicotinonitrile] | 99 |
| COc1ncc(-c2cc(-n3cnc4cc(C(C)(C)O)ccc43)ccc2F)c(OC)n1 [Compound 7h, 2-{1-[3-(2,4-Dimethoxy-pyrimidin-5-yl)-4-fluoro-phenyl]-1H-benzoimidazol-5-yl}-propan-2-ol] | 0.77 |

The next lines start with the values.

| IC50 [nM] | Compound |
| --- | --- |
| 1.6 | CC(C)(O)c1ccc2c(c1)ncn2-c1ccc(F)c(-c2cccnc2F)c1 [Compound 7a, 2-{1-[4-Fluoro-3-(2-fluoro-pyridin-3-yl)-phenyl]-1H-benzoimidazol-5-yl}-propan-2-ol] |
| 0.29 | COc1ncccc1-c1cc(-n2cnc3cc(C(C)(C)O)ccc32)ccc1F [Compound 7d, 2-{1-[4-Fluoro-3-(2-methoxy-pyridin-3-yl)-phenyl]-1H-benzoimidazol-5-yl}-propan-2-ol] |
| 1.1 | CC(C)(O)c1ccc2c(c1)ncn2-c1ccc(F)c(-c2ccncc2F)c1 [Compound 7e, 2-{1-[4-Fluoro-3-(3-fluoro-pyridin-4-yl)-phenyl]-1H-benzoimidazol-5-yl}-propan-2-ol] |
| 0.64 | CC(C)(O)c1ccc2c(c1)ncn2-c1ccc(F)c(-c2ccncc2Cl)c1 [Compound 7c, 2-{1-[3-(3-Chloro-pyridin-4-yl)-4-fluoro-phenyl]-1H-benzoimidazol-5-yl}-propan-2-ol] |
| 1.9 | CC(C)(O)c1ccc2c(c1)ncn2-c1ccc(F)c(-c2cccnc2Cl)c1 [Compound 7b, 2-{1-[3-(2-Chloro-pyridin-3-yl)-4-fluoro-phenyl]-1H-benzoimidazol-5-yl}-propan-2-ol] |
